Measured values from patent US20240000821A1, “CHEMICAL INHIBITORS AGAINST KINASES TO BLOCK TELOMERE ELONGATION IN CANCER” (THE JOHNS HOPKINS UNIVERSITY, priority 2016, published 2024).

How the values were obtained:
SL13 cells = assay: Inhibition of SVA mediated telomere elongation (telomere Southern blot); assay type: cell-based, mouse; conditions: for concentration dependence of the block of telomere elongation: several concentrations, FIG. 6, FIG. 7B
Method: Inhibition of SVA mediated telomere elongation. First, 2×10^5 SL13 cells were plated onto a 6-well dish in DMEM (Gibco) with 10% FBS (Sigma) and 1% Penicillin-Streptomycin-Glutamine (Gibco). SL13 cells are a mouse fibroblast line that was derived as described (Lee et al., 299(Pt 1) BIOCHEM. J. 123-28 (2015)). After 24 hours, the drug or vehicle was added at the indicated concentration for the duration of the experiment. 24 hours later, SVA virus was added at an MOI of 0.5. 2 population doublings were estimated during the initial 48 hours; therefore 400,000 transduction units of SVA were added to 800,000 cells. Media was changed at 24 hours post transduction, and cell pellets were collected at 2 and 6 days post transduction.
Telomere Southern Blot. Telomere length was measured by telomere restriction fragment Southern blot. Genomic DNA was extracted using Puregene Core Kit A (Qiagen). 1-3 μg of gDNA was digested with MseI (NEB) and loaded onto a 0.7% TAE Agarose gel. The gel was run at 37 V for 16 hours, then denatured for 30 minutes in 0.5 M NaOH and 1.5 M NaCl, then neutralized for 30 minutes in 1.5 M NaCl and 0.5 M Tris-HCl pH 7.4. The DNA was transferred from the gel to a nylon membrane (Amersham Hybond N+) by the weighted method overnight. Next, DNA was crosslinked to the membrane with a UV Stratalinker (Stratagene). The membrane was then pre-incubated for 2 hours at 65° C. with Church's Buffer. Telomere probe and 2-log ladder (Life Technologies) was then end-labeled with Klenow fragment polymerase (NEB) 33 μM of dATP, dTTP, dGTP and 50 μCi of α-32P dCTP (3000 Ci/mmol). Unincorporated nucleotides were removed by running on a G50 column (GE Healthcare). Labeled probe was counted, denatured at 100° C., and 10^6 counts/mL telomere probe and 2×10^4 counts/mL of 2-log ladder were added. The membrane was probed overnight at 65° C. The next day, the membrane was washed twice with 2×SSC 0.1% SDS, then twice with 0.5×SSC 0.1 SDS. The membrane was exposed on a phosphorimager (GE Healthcare) and imaged on a STORM scanner (GE Healthcare).

mouse fibroblasts = assay: toxicity to mouse fibroblasts; assay type: cell-based; conditions: data not shown
CK1 = conditions: Selleckchem, read-out: in vitro IC50; cited from earlier work
[1] = 0.5 μM, days 2 and 6 post SVA transduction, FIG. 7A
[2] = 10 μM, days 2 and 6 post SVA transduction

Nc1ncnc2c1c(I)cn2[C@@H]1O[C@H](CO)[C@@H](O)[C@H]1O [5-Iodotubercidin]
effect on telomere elongation by SVA (SL13 cells; [1]): did not affect telomere elongation

NC(=O)c1ccc(-c2nc(-c3ccc4c(c3)OCCO4)c(-c3ccccn3)[nH]2)cc1 [Compound D4476]
effect on telomere elongation by SVA (SL13 cells; 0.37 μM, compared to DMSO control, FIG. 7B): able to block some telomere elongation
effect on telomere elongation by SVA (SL13 cells; [2]): blocked telomere elongation
effect on telomere elongation by SVA (SL13 cells; lower concentrations (3.33 μM, 1.11 μM or 0.37 μM), FIG. 7B): less blockage of telomere elongation

Nc1[nH]nc2nnc(-c3c(-c4ccccc4)nn4ccccc34)cc12 [FR-180204]
effect on telomere elongation by SVA (SL13 cells; [2]): minimal effect on telomere elongation

Cn1nccc1Nc1nccc(-c2ccn([C@H](CO)c3ccc(Cl)c(F)c3)c(=O)c2)n1 [GDC-0994]
effect on telomere elongation by SVA (SL13 cells; [2]): blocked telomere elongation

COc1cc2c(cc1-c1c(C)noc1C)ncc1[nH]c(=O)n([C@H](C)c3ccccn3)c12 [I-BET151]
effect on telomere elongation by SVA (SL13 cells; 1 μM, days 2 and 6 post SVA transduction, FIG. 5C): blocked SVA induced telomere elongation

COc1cc(OC)c(C=C2C(O)=Nc3ccccc32)c(OC)c1 [IC261]
effect on telomere elongation by SVA (SL13 cells; [1]): did not affect telomere elongation
cell death (mouse fibroblasts; 2.5 μM): significant cell death
IC50 (CK1): 16 µM

Cc1sc2c(c1C)C(c1ccc(Cl)cc1)=N[C@@H](CC(=O)OC(C)(C)C)c1nnc(C)n1-2 [JQ1]
effect on telomere elongation by SVA (SL13 cells; 11 nM, days 2 and 6 post SVA transduction, FIG. 6): virtually no effect on telomere elongation
effect on telomere elongation by SVA (SL13 cells; 33 nM, days 2 and 6 post SVA transduction, FIG. 6): intermediate telomere length
effect on telomere elongation by SVA (SL13 cells; 0.1 μM, telomere length day 6 vs day 2 post SVA transduction, FIG. 5A): blocked telomere elongation
effect on telomere elongation by SVA (SL13 cells; 100 nM, days 2 and 6 post SVA transduction, FIG. 6): blocked nearly all SVA mediated elongation
concentration dependence of the block of telomere elongation (SL13 cells): titrates with its concentration

O=c1cc(-c2cccc3c2Sc2ccccc2S3)oc(N2CCOCC2)c1 [KU-55933]
effect on telomere elongation by SVA (SL13 cells; [2]): blockage

Cc1cc(/N=N/c2ccc(S(=O)(=O)Nc3ccccn3)cc2)c(N)cc1O [MS436]
effect on telomere elongation by SVA (SL13 cells; 5 μM, days 2 and 6 post SVA transduction): blocked SVA induced telomere elongation

Cc1sc2c(c1C)C(c1ccc(Cl)cc1)=N[C@@H](CC(=O)Nc1ccc(O)cc1)c1nnc(C)n1-2 [OTX015]
effect on telomere elongation by SVA (SL13 cells; 0.4 μM, days 2 and 6 post SVA transduction, FIG. 5B): blocked SVA induced telomere elongation
